Reference: ChEMBL document CHEMBL5046231, “Modulation of Naturally Occurring Linear Dipeptide Chirality to Reduce the Affinity for Oligopeptide Transporter 1 and Increase Intestinal Stability for an Enhanced Colon-Targeting Effect in the Treatment of Inflammatory Bowel Disease: An Application of trans-4-l-Hydroxyprolyl-l-serine” (J Med Chem, 2022)

Assays:
[1] = Toxicity in healthy C57BL/6 mouse assessed as change in body weight at 100 mg/kg, po administered for 10 days; type: organism-based; conditions: in vivo, 240 h, time 10 day
[2] = Cmax in DSS-induced colitis C57BL/6 mouse model at 25 mg/kg, po measured up to 6 hrs by UPLC-MS/MS analysis; type: ADME, organism-based; set-up: route oral, dose 25 mg/kg, time <=6; conditions: in vivo
[3] = Tmax in healthy C57BL/6 mouse at 25 mg/kg, po measured up to 6 hrs by UPLC-MS/MS analysis; type: ADME, organism-based; conditions: in vivo
Mus musculus [4] = test: Anti-colitis activity against DSS-induced C57BL/6 mouse model of colitis assessed as fold change in disease activity index at 25 to 100 mg/kg, po administered via gavage twice a day for 10 days relative to SASP; type: functional; conditions: dose 25-100 mg/kg; time 10 day
Mus musculus [5] = test: Anti-colitis activity against DSS-induced C57BL/6 mouse model of colitis assessed as restoration of intestinal barrier function by measuring fold increase in FITC-dextran level in plasma at 25 mg/kg, po administered via gavage twice a day for 10 days followed by FITC-dextran addition and measured after 4 hrs; type: functional; conditions: time 10 day
[6] = Metabolic stability in healthy C57BL/6 mouse jejunum assessed as half life measured up to 12 hrs by HPLC analysis; type: ADME, tissue-based
[7] = Cmax in healthy C57BL/6 mouse at 25 mg/kg, po measured up to 6 hrs by UPLC-MS/MS analysis; type: ADME, organism-based; set-up: route oral, dose 25 mg/kg, time <=6; conditions: in vivo
[8] = Stability in simulated gastric fluid at pH 1.2 assessed as half life measured up to 12 hrs by HPLC analysis; type: ADME
[9] = Metabolic stability in DSS-induced C57BL/6 mouse jejunum assessed as half life measured up to 12 hrs by HPLC analysis; type: ADME, tissue-based
Mus musculus [10] = test: Anti-colitis activity against DSS-induced C57BL/6 mouse model of colitis assessed as fold change in body weight recovery at 25 to 100 mg/kg, po administered via gavage twice a day for 10 days relative to SASP; type: functional; conditions: dose 25-100 mg/kg; time 10 day
[11] = Toxicity in healthy C57BL/6 mouse assessed as histological changes in spleen at 100 mg/kg, po administered for 10 days by H and E staining based assay; type: organism-based; conditions: in vivo, 240 h, time 10 day
[12] = Metabolic stability in healthy C57BL/6 mouse liver assessed as half life measured up to 12 hrs by HPLC analysis; type: ADME, tissue-based
[13] = Metabolic stability in healthy C57BL/6 mouse colonic flora homogenate assessed as half life measured up to 12 hrs by HPLC analysis; type: ADME
[14] = Toxicity in healthy C57BL/6 mouse assessed as effect on colon length at 100 mg/kg, po administered for 10 days; type: organism-based; conditions: in vivo, 240 h, time 10 day

Cmax [2]: 24 µM
Tmax [3]: 4 h
half-life [6]: > 720 min
Cmax [7]: 5.79 µM
half-life [8]: > 720 min
half-life [9]: > 720 min
half-life [12]: > 720 min
half-life [13]: > 720 min
SMILES: O=C(O)[C@@H](CO)NC(=O)[C@H]1C[C@@H](O)CN1
Activity [1]: Non-Toxic
fold change (FC) (Mus musculus [4]): 2.3
fold change (FC) (Mus musculus [5]): 10.7
fold change (FC) (Mus musculus [10]): 2.1
Activity [11]: Non-Toxic
Activity [14]: Non-Toxic
